Molecular target: T1, AIPL1 (full-length mouse AIPL1) (Mus musculus, UniProt Q924K1)
T1 construct: full-length (aa 1-328), His6-tagged from pET15b, expressed in E. coli BL21(DE3), purified by Ni-NTA, Mono Q and SEC; prenyl site in the FKBP domain
T1 sequence (Q924K1 1-328): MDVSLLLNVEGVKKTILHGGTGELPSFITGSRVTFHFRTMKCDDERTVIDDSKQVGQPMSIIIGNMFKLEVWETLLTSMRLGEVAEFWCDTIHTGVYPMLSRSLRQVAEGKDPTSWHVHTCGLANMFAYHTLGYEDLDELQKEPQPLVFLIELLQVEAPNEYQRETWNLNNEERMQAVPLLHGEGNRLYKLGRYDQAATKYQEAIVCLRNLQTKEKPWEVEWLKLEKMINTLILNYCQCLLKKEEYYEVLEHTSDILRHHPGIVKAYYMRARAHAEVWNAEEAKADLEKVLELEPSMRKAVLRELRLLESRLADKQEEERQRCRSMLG
Assay: fluorescence titration, ex […] nm, em […] nm, fit with ligand depletion
Assay type: binding

Kd: 700 ± 100 nM
SMILES: CC(C)=CCC/C(C)=C/CC/C(C)=C/CSC[C@H](NC(=O)CCCCCNC(=O)Cc1c(C)c2ccc(N)cc2oc1=O)C(=O)O [farnesyl-Cys-AMCA]

Reference: PMC8857470, “Molecular insights into the maturation of phosphodiesterase 6 by the specialized chaperone complex of HSP90 with AIPL1” (The Journal of Biological Chemistry, 2022)
